≈ marks a conversion by molar mass, not a printed value. Where two headings read alike, the source gives them in different places.
Assays:
[1] = Kinetic solubility (MultiScreen Solubility filter plate, UV); format: physicochemical; settings: aqueous buffer with 2% DMSO, kinetic from dmso stock, 260 nm
Method: The tested compound was dissolved in DMSO to reach a 10-mM concentration and then poured into an aqueous solvent (a phosphate buffer, water, or universal buffers of different pH values) to bring the concentration down to 200 μM. The resulting solution placed in a 96-well filter plate (Millipore's MultiScreen Solubility Filter Plate) was incubated for an hour at room temperature on a shaker, and the residue was filtered off in vacuo. The absorption spectrum of the compound was recorded on a spectrophotometer in a range of 240-400 nm with a 10-nm increment. […] The range of estimated concentrations was 3-200 μM. The test procedure was performed in duplicate.
Six standard samples with concentrations of 0, 3.125, 12.5, 50, 100, and 200 μM were prepared in the wells of a UV 96-well plate by adding 4 μl of corresponding 50× stock solutions in DMSO to 196 μl of a buffer comprising 40% acetonitrile. The concentration of DMSO in all points was constant and equal to 2% (v/v).
To plot calibration curves, the optical spectrum of the UV plate was recorded in a wavelength range of 250 400 nm with a 10-nm increment. Based on the spectral data for each compound, wavelengths were selected to meet the following criteria:
For minimum compound concentration, OD>0.1 (AU);
For maximum compound concentration, OD<2.0.
For each compound, a calibration curve was plotted with OD at selected wavelength as a function of concentration.
Solubility was evaluated in a MultiScreen Solubility (Millipore Corp.) filter plate as follows:
Into each well of the MultiScreen Solubility filter plate, 196 μl of a buffer (without acetonitrile) and 4 μl of a 10-mM compound in DMSO or 4 μl of DMSO (for a blank matrix) were added. The plate was incubated for one hour on a shaker (400 rpm) at room temperature.
The resulting solutions were filtered off through the filter plate by means of vacuum (10″ Hg) into a polypropylene plate with a U-shaped bottom.
From the U-bottom plate, the filtrate (120 μl/well) was transferred into a new UV plate, where to acetonitrile (80 μl/well) was added.
The optical density of resulting solutions for a pre-selected wavelength was measured for each compound.
The final compound concentration in the filtrate was computed as follows:
Cfiltrate=(ODλFiltrate-ODλBlank)/Slope×1.67,

[2] = Cytotoxicity in Huh7 cells (ATPLite kit); format: cell-based; settings: human
Method: The cytotoxicity of tested compositions comprising the prodrug was evaluated concurrently in the same cell line Huh7 using an ATPLite kit (Perkin-Elmer, Boston, USA) in accordance with the manufacturer's instruction. The cell suspension in complete culture medium (DMEM 1×, Cellgro; cat. #10-013-CV) was transferred into 96-well plates with black walls and transparent bottoms (50 μl/well) with a final density of 7500 cells per well. Eighteen hours after planting the cells, serial compound dilutions (50 μl/well) were added. The plate with cells was incubated for 4 days at 37° C. in a humidified 5% CO2 atmosphere. The cells were then twice washed with PBS (200 μl/well) and lysed by adding a lytic buffer (50 μl/well); all reagents were taken from the ATPLite kit. Following a 5-minute stirring on a shaker, a substrate was added (50 μl/well). After an additional 5-minute incubation, the plate was kept for 10 minutes in the dark, and luminescence in the wells was measured using the multifunctional reader Victor^3 V 1420 (Perkin Elmer). The values of CC50 for tested compounds were measured from a cytotoxicity curve plotted using the GraphPad Prizm software.

physchem = settings: simulated gi fluid
Method: (§1) Evaluation of stability in biological matrix for compositions comprising the prodrug of formula 1.1. Initial compositions comprising the prodrug of formula 1.1 (the tested compounds) were prepared with a concentration of 10 mM in DMSO. From said compositions, 100-fold working solutions were prepared with a concentration of 100 μM in a mixture of acetonitrile: water with a volumetric ratio of 1:1.
The tested composition comprising the prodrug of formula 1.1 in a final concentration of 1 μM was incubated in artificial gastric juice (0.2% NaCl in 0.7% v/v HCl) and artificial intestinal juice (0.05M KH2PO4, pH 6.75). The incubation was performed in a Vortemp56 shaking incubator at 37° C. with stirring at a rate of 300 rev/min. […] The samples were then centrifuged, and the supernatant (150 μl) was sampled for analysis […]. The incubation was performed in two replicates, with each sample measured twice.
Samples were analyzed using an HPLC-MS/MS technique developed for each tested prodrug, wherein the chromatographic system 1290 Infinity II (Agilent Technologies) was combined with the tandem mass spectrometer QTRAP5500 (AB Sciex). When developing conditions for mass-spectrometric detection, the solutions of tested compounds in a mixture of acetonitrile-water (1:1) with a concentration of 100 ng/ml were injected directly into the mass spectrometer using a syringe pump with electrospray ionization carried out in a positive ion mode. Scanning in a total ion current mode (MS1) allowed us to identify a molecular ion for each compound, and basic product ions were recorded in MS2 mode. Then, to attain maximum sensitivity, the MS/MS technique was optimized in MRM mode. In quantitative chromatogram processing, the most intensive MRM transition was used for the analyte and the internal standard. Separation was carried out by means of linear gradient elution chromatography on a YMC Triart C18 column (50×2 mm, 1.9 μm) in a mobile phase consisting of 0.1% formic acid in water and 0.1% formic acid in acetonitrile. Tolbutamide (Fluka) was used as the internal standard.
Half-life (T1/2) was found from the kinetics of tested prodrug elimination in an antiviral composition during incubation in a biological matrix. The computations were based on the values of chromatographic peak areas for compounds in test samples normalized to the internal standard signal. From linear dependence of log normalized areas of chromatographic peaks on time, the constant of elimination rate was calculated (k is linear section slope).

in vitro = settings: human, plasma
Method: as §1
The incubation was performed in a Vortemp56 shaking incubator at 37° C. with stirring at a rate of 300 rev/min. […] The samples were then centrifuged, and the supernatant (150 μl) was sampled for analysis […]. The incubation was performed in two replicates, with each sample measured twice.
Samples were analyzed using an HPLC-MS/MS technique developed for each tested prodrug, wherein the chromatographic system 1290 Infinity II (Agilent Technologies) was combined with the tandem mass spectrometer QTRAP5500 (AB Sciex). […] Scanning in a total ion current mode (MS1) allowed us to identify a molecular ion for each compound, and basic product ions were recorded in MS2 mode. […] In quantitative chromatogram processing, the most intensive MRM transition was used for the analyte and the internal standard. […]

`C[C@H](N[P@](=O)(OC[C@H]1O[C@@H](n2ccc(=O)[nH]c2=O)[C@](C)(F)[C@@H]1O)Oc1ccccc1)C(=O)OC1CCC1` [Prodrug 1.1, cyclobutyl (S)-2-{(S)-[(2R,3R,4R,5R)-5-(3,4-dihydro-2,4-dioxo-2H-pyrimidin-1-yl)-3-hydroxy-4-methyl-4-fluoro-tetrahydro-furan-2-ylmethoxy]-phenoxy-phosphorylamino}-propanoate] gave a solubility at 1 h ([1]; pH 2, aqueous buffer, recrystallized from acetic acid, polycrystal, read-out: Solubility at pH 2) of 630 µg/mL (≈ 1160 µM), a solubility at 1 h ([1]; pH 2, aqueous buffer, recrystallized from dimethyl sulfoxide, crystal, read-out: Solubility at pH 2) of 180 µg/mL (≈ 332 µM) and a solubility at 1 h ([1]; pH 2, aqueous buffer, recrystallized from ethanol, polycrystal, read-out: Solubility at pH 2) of 200 µg/mL (≈ 369 µM). For the same compound, the solubility at 1 h ([1]; pH 2, aqueous buffer, recrystallized from ethyl acetate and methyl-tert-butyl ether mixture, polycrystal, read-out: Solubility at pH 2) was 250 µg/mL (≈ 462 µM), the solubility at 1 h ([1]; pH 2, aqueous buffer, recrystallized from ethyl acetate, polycrystal, read-out: Solubility at pH 2) was 220 µg/mL (≈ 406 µM) and the solubility at 1 h ([1]; pH 7, aqueous buffer, recrystallized from acetic acid, polycrystal, read-out: Solubility at pH 7) was 670 µg/mL (≈ 1240 µM). It also gave a solubility at 1 h ([1]; pH 7, aqueous buffer, recrystallized from dimethyl sulfoxide, crystal, read-out: Solubility at pH 7) of 180 µg/mL (≈ 332 µM), a solubility at 1 h ([1]; pH 7, aqueous buffer, recrystallized from ethanol, polycrystal, read-out: Solubility at pH 7) of 200 µg/mL (≈ 369 µM) and a solubility at 1 h ([1]; pH 7, aqueous buffer, recrystallized from ethyl acetate and methyl-tert-butyl ether mixture, polycrystal, read-out: Solubility at pH 7) of 240 µg/mL (≈ 443 µM). For the same compound, the solubility at 1 h ([1]; pH 7, aqueous buffer, recrystallized from ethyl acetate, polycrystal, read-out: Solubility at pH 7) was 220 µg/mL (≈ 406 µM), the CC90 at 4 days ([2]; Huh7, 10% FBS) was greater than 100 µM and the CC50 at 4 days ([2]; Huh7, ATPLite, 4 days) was greater than 100 µM. The half-life at 1 μM (physchem; T1/2 SGF, artificial gastric juice, 37° C.) was 12.7 to 15 h, the half-life at 1 μM (physchem; pH 6.75) was greater than 24 h and the half-life at 1 μM (in vitro) was greater than 24 h.
